Assay results: US12281095B2, “Pesticidally active diazine-amide compounds” (SYNGENTA CROP PROTECTION AG, priority 2019, dated 2025)

Assays:
Assay type in all cases: in vivo
[1] = test system: Diabrotica balteata (Corn Root Worm); test: Example B1: Diabrotica balteata (Corn Root Worm), sprayed maize sprouts; conditions: 96 h, application rate of 200 ppm, L2 larvae, 4 days after infestation, read-out: control in at least one of the two categories (mortality or growth inhibition)
Description: Example B1: Diabrotica balteata (Corn Root Worm)
Maize sprouts placed onto an agar layer in 24-well microtiter plates were treated with aqueous test solutions prepared from 10′000 ppm DMSO stock solutions by spraying. After drying, the plates were infested with L2 larvae (6 to 10 per well). The samples were assessed for mortality and growth inhibition in comparison to untreated samples 4 days after infestation.

[2] = test system: Chilo suppressalis (Striped Rice Stemborer); test: Example B4: Chilo suppressalis (Striped Rice Stemborer), artificial diet; conditions: 144 h, application rate of 200 ppm, L2 larvae, 6 days after infestation, read-out: control in at least one of the three categories (mortality, anti-feedant or growth inhibition)
In short: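 Artificial diet was treated with aqueous dilutions made from 10'000 ppm DMSO stocks, dried, then infested with L2 larvae at 6–8 per well. Mortality, antifeedant effect and growth inhibition were assessed against untreated samples 6 days after infestation.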

[3] = test system: Plutella xylostella (Diamond Back Moth); test: Example B5: Plutella xylostella (Diamond Back Moth), artificial diet, 24-well; conditions: 192 h, application rate of 200 ppm, eggs, 8 days after infestation, read-out: control in at least one of the two categories (mortality or growth inhibition)
Description: Example B5: Plutella xylostella (Diamond Back Moth)
24-well microtiter plates with artificial diet were treated with aqueous test solutions prepared from 10′000 ppm DMSO stock solutions by pipetting. After drying, Plutella eggs were pipetted through a plastic stencil onto a gel blotting paper and the plate was closed with it. The samples were assessed for mortality and growth inhibition in comparison to untreated samples 8 days after infestation.

[4] = test system: Spodoptera littoralis (Egyptian Cotton Leaf Worm); test: Example B9: Spodoptera littoralis (Egyptian Cotton Leaf Worm), sprayed cotton leaf discs; conditions: foliar, 72 h, application rate of 200 ppm, L1 larvae, 3 days after infestation, read-out: control in at least one of the three categories (mortality, anti-feedant or growth inhibition)
[5] = test system: Tetranychus urticae (Two-Spotted Spider Mite); test: Example B11: Tetranychus urticae (Two-Spotted Spider Mite), sprayed bean leaf discs; conditions: foliar, 192 h
Description: Example B11: Tetranychus urticae (Two-Spotted Spider Mite)
Bean leaf discs on agar in 24-well microtiter plates were sprayed with aqueous test solutions prepared from 10′000 ppm DMSO stock solutions. After drying the leaf discs were infested with a mite population of mixed ages. The samples were assessed for mortality on mixed population (mobile stages) 8 days after infestation.

[6] = test system: Plutella xylostella (Diamondback Moth); test: Example B13: Plutella xylostella (Diamondback Moth), artificial diet, 96-well; conditions: 216 h, application rate of 500 ppm, eggs/L1 larvae, 9 days after infestation
Description: Example B13: Plutella xylostella (Diamondback Moth)
96-well microtiter plates containing artificial diet were treated with aqueous test solutions, prepared from 10′000 ppm DMSO stock solutions, by a liquid handling robot. After drying, eggs (˜30 per well) were infested onto a netted lid which was suspended above the diet. The eggs hatch and L1 larvae move down to the diet. The samples were assessed for mortality 9 days after infestation.

[7] = test system: Euschistus heros (Neotropical Brown Stink Bug); test: Example B2: Euschistus heros (Neotropical Brown Stink Bug), sprayed soybean leaves; conditions: 120 h, application rate of 200 ppm, N2 nymphs, 5 days after infestation, read-out: control in at least one of the two categories (mortality or growth inhibition)
Description: Example B2: Euschistus heros (Neotropical Brown Stink Bug)
Soybean leaves on agar in 24-well microtiter plates were sprayed with aqueous test solutions prepared from 10′000 ppm DMSO stock solutions. After drying the leaves were infested with N2 nymphs. The samples were assessed for mortality and growth inhibition in comparison to untreated samples 5 days after infestation.

[8] = test system: Frankliniella occidentalis (Western Flower Thrips); test: Example B3: Frankliniella occidentalis (Western Flower Thrips): Feeding/Contact Activity; conditions: 168 h, application rate of 200 ppm, population of mixed ages, 7 days after infestation
Description: Example B3: Frankliniella occidentalis (Western Flower Thrips): Feeding/Contact Activity
Sunflower leaf discs were placed on agar in 24-well microtiter plates and sprayed with aqueous test solutions prepared from […] stock solutions. After drying the leaf discs were infested with a Frankliniella population of mixed ages. The samples were assessed for mortality 7 days after infestation.

[9] = test system: Myzus persicae (Green Peach Aphid); test: Example B8: Myzus persicae (Green Peach Aphid): Intrinsic Activity; conditions: 120 h, test rate of 12 ppm, sucrose solution, 5 days after infestation
From the text: Example B8: Myzus persicae (Green Peach Aphid): Intrinsic Activity
Test compounds prepared from 10′000 ppm DMSO stock solutions were applied by pipette into 24-well microtiter plates and mixed with sucrose solution. The plates were closed with a stretched Parafilm. A plastic stencil with 24 holes was placed onto the plate and infested pea seedlings were placed directly on the Parafilm. The infested plate was closed with a gel blotting paper and another plastic stencil and then turned upside down. The samples were assessed for mortality 5 days after infestation.

[10] = test system: Myzus persicae (Green Peach Aphid); test: Example B6: Myzus persicae (Green Peach Aphid): Feeding/Contact Activity; conditions: 144 h, application rate of 200 ppm, aphid population of mixed ages, 6 days after infestation
Description: Example B6: Myzus persicae (Green Peach Aphid): Feeding/Contact Activity
Sunflower leaf discs were placed onto agar in a 24-well microtiter plate and sprayed with aqueous test solutions prepared from 10′000 ppm DMSO stock solutions. After drying, the leaf discs were infested with an aphid population of mixed ages. The samples were assessed for mortality 6 days after infestation.

CC(NC(=O)c1cc(C(F)(F)F)nc(C2(C#N)CC2)c1)c1nccnc1-c1ccc(OCC(F)F)cn1 (centres unmarked) [P22, 2-(1-cyanocyclopropyl)-N-[1-[3-[5-(2,2-difluoroethoxy)-2-pyridyl]pyrazin-2-yl]ethyl]-6-(trifluoromethyl)pyridine-4-carboxamide]
≥ 80%: percent control (mortality or growth inhibition) at 200 ppm [1] | percent control (mortality, anti-feedant effect or growth inhibition) at 200 ppm [2] | percent control (mortality or growth inhibition) at 200 ppm [3] | percent control (mortality, anti-feedant effect or growth inhibition) at 200 ppm [4] | mortality at 200 ppm [5] | mortality at 500 ppm [6]

CC(NC(=O)c1cc(C(F)(F)F)cc(C(C)(C)C#N)c1)c1nccnc1-c1ncc(OCC(F)F)cn1 (centres unmarked) [P48, 3-(1-cyano-1-methyl-ethyl)-N-[1-[3-[5-(2,2-difluoroeth-oxy)pyrimidin-2-yl]pyrazin-2-yl]ethyl]-5-(trifluoro-methyl)benzamide]
≥ 80%: percent control (mortality or growth inhibition) at 200 ppm [1] | percent control (mortality or growth inhibition) at 200 ppm [7] | mortality at 200 ppm [8] | percent control (mortality, anti-feedant effect or growth inhibition) at 200 ppm [2] | percent control (mortality or growth inhibition) at 200 ppm [3] | mortality at 12 ppm [9] | percent control (mortality, anti-feedant effect or growth inhibition) at 200 ppm [4]

CC(NC(=O)c1cc(OC(F)F)cc(C2(C#N)CC2)c1)c1nccnc1-c1ccc(C#N)cn1 (centres unmarked) [P44, 3-(1-cyanocyclopropyl)-N-[1-[3-(5-cyano-2-pyridyl)pyrazin-2-yl]ethyl]-5-(difluorometh-oxy)benzamide]
≥ 80%: percent control (mortality or growth inhibition) at 200 ppm [1] | mortality at 200 ppm [8] | percent control (mortality, anti-feedant effect or growth inhibition) at 200 ppm [2] | percent control (mortality or growth inhibition) at 200 ppm [3] | mortality at 12 ppm [9] | percent control (mortality, anti-feedant effect or growth inhibition) at 200 ppm [4]

CC(NC(=O)c1cc(C(F)(F)F)cc(C2(C#N)CC2)c1)c1nccnc1-c1ncc(OCC(F)F)cn1 (centres unmarked) [P49, 3-(1-cyanocyclopropyl)-N-[1-[3-[5-(2,2-difluoroethoxy)pyrimidin-2-yl]pyrazin-2-yl]ethyl]-5-(trifluoromethyl)benzamide]
≥ 80%: percent control (mortality or growth inhibition) at 200 ppm [1] | percent control (mortality or growth inhibition) at 200 ppm [7] | percent control (mortality, anti-feedant effect or growth inhibition) at 200 ppm [2] | percent control (mortality or growth inhibition) at 200 ppm [3] | mortality at 200 ppm [10] | mortality at 12 ppm [9] | percent control (mortality, anti-feedant effect or growth inhibition) at 200 ppm [4]
